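Following 48 hours of exposure in 96-well plates, responses at five concentrations were used to interpolate endpoints linearly. GI50: concentration for 50% inhibition of growth. The concentration for full growth arrest is given as TGI.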
How the values were obtained:
Assay in all cases: NCI tumour cell line growth inhibition, 48 h
786-0 renal = tested on: 786-0 renal
A498 renal = tested on: A498 renal
A549 NSCLC = tested on: A549 NSCLC
ACHN renal = tested on: ACHN renal
BT-549 breast = tested on: BT-549 breast
CAKI-1 renal = tested on: CAKI-1 renal
CCRF-CEM leukemia = tested on: CCRF-CEM leukemia
COLO 205 colon = tested on: COLO 205 colon
DU-145 prostate = tested on: DU-145 prostate
HCC-2998 colon = tested on: HCC-2998 colon
HCT-116 colon = tested on: HCT-116 colon
HCT-15 colon = tested on: HCT-15 colon
HL-60(TB) leukemia = tested on: HL-60(TB) leukemia
HOP-62 NSCLC = tested on: HOP-62 NSCLC
HOP-92 NSCLC = tested on: HOP-92 NSCLC
HS 578T breast = tested on: HS 578T breast
HT29 colon = tested on: HT29 colon
IGROV1 ovarian = tested on: IGROV1 ovarian
K-562 leukemia = tested on: K-562 leukemia
KM12 colon = tested on: KM12 colon
LOX IMVI melanoma = tested on: LOX IMVI melanoma
M14 melanoma = tested on: M14 melanoma
MALME-3M melanoma = tested on: MALME-3M melanoma
MCF7 breast = tested on: MCF7 breast
MDA-MB-231 breast = tested on: MDA-MB-231 breast
MDA-MB-435 = tested on: MDA-MB-435
MOLT-4 leukemia = tested on: MOLT-4 leukemia
NCI-H226 lung = tested on: NCI-H226 lung
NCI-H23 lung = tested on: NCI-H23 lung
NCI-H460 lung = tested on: NCI-H460 lung
NCI-H522 lung = tested on: NCI-H522 lung
NCI/ADR-RES ovarian = tested on: NCI/ADR-RES ovarian
OVCAR-3 ovarian = tested on: OVCAR-3 ovarian
OVCAR-4 ovarian = tested on: OVCAR-4 ovarian
OVCAR-5 ovarian = tested on: OVCAR-5 ovarian
OVCAR-8 ovarian = tested on: OVCAR-8 ovarian
PC-3 prostate = tested on: PC-3 prostate
RPMI-8226 leukemia = tested on: RPMI-8226 leukemia
RXF 393 renal = tested on: RXF 393 renal
SF-268 CNS = tested on: SF-268 CNS
SF-295 CNS = tested on: SF-295 CNS
SF-539 CNS = tested on: SF-539 CNS
SK-MEL-2 melanoma = tested on: SK-MEL-2 melanoma
SK-MEL-28 melanoma = tested on: SK-MEL-28 melanoma
SK-MEL-5 melanoma = tested on: SK-MEL-5 melanoma
SK-OV-3 ovarian = tested on: SK-OV-3 ovarian
SN12C renal = tested on: SN12C renal
SNB-19 CNS = tested on: SNB-19 CNS
SNB-75 CNS = tested on: SNB-75 CNS
SR leukemia = tested on: SR leukemia
SW-620 colon = tested on: SW-620 colon
T-47D breast = tested on: T-47D breast
TK-10 renal = tested on: TK-10 renal
U251 CNS = tested on: U251 CNS
UACC-257 melanoma = tested on: UACC-257 melanoma
UACC-62 melanoma = tested on: UACC-62 melanoma
UO-31 renal = tested on: UO-31 renal

Q: With `COC(=O)[C@H]1CCCN1C(=O)[C@H]1CCCN1C(=O)[C@H](Cc1c[nH]c2ccccc12)NC(=S)Nc1cc(C(F)(F)F)cc(C(F)(F)F)c1` as the molecule, how does the GI50 (786-0 renal) read?
A: 13.8 µM

Q: What about the TGI (786-0 renal) of the same molecule?
A: 83 µM

Q: What about the GI50 (A498 renal) of the same molecule?
A: 6.54 µM

Q: And the TGI (A498 renal)?
A: > 100 µM

Q: What about the GI50 (A549 NSCLC) of the same molecule?
A: 4.08 µM

Q: And the TGI (A549 NSCLC)?
A: > 100 µM

Q: What about the GI50 (ACHN renal) of the same molecule?
A: 4.12 µM

Q: What about the TGI (ACHN renal) of the same molecule?
A: > 100 µM

Q: What about the GI50 (BT-549 breast) of the same molecule?
A: 8.74 µM

Q: And the TGI (BT-549 breast)?
A: 46 µM

Q: What about the GI50 (CAKI-1 renal) of the same molecule?
A: 15 µM

Q: And the TGI (CAKI-1 renal)?
A: > 100 µM

Q: And the GI50 (CCRF-CEM leukemia)?
A: 7.23 µM

Q: And the TGI (CCRF-CEM leukemia)?
A: > 100 µM

Q: And the GI50 (COLO 205 colon)?
A: 2080 nM

Q: What about the TGI (COLO 205 colon) of the same molecule?
A: 4.28 µM

Q: And the GI50 (DU-145 prostate)?
A: 6.53 µM

Q: What about the TGI (DU-145 prostate) of the same molecule?
A: > 100 µM

Q: And the GI50 (HCC-2998 colon)?
A: 2420 nM

Q: What about the TGI (HCC-2998 colon) of the same molecule?
A: 5.96 µM

Q: What about the GI50 (HCT-116 colon) of the same molecule?
A: 4.27 µM

Q: And the TGI (HCT-116 colon)?
A: > 100 µM

Q: And the GI50 (HCT-15 colon)?
A: 6.26 µM

Q: And the TGI (HCT-15 colon)?
A: > 100 µM

Q: What about the GI50 (HL-60(TB) leukemia) of the same molecule?
A: 4.19 µM

Q: And the TGI (HL-60(TB) leukemia)?
A: 57.2 µM

Q: And the GI50 (HOP-62 NSCLC)?
A: 8.28 µM

Q: What about the TGI (HOP-62 NSCLC) of the same molecule?
A: > 100 µM

Q: What about the GI50 (HOP-92 NSCLC) of the same molecule?
A: 1700 nM

Q: And the TGI (HOP-92 NSCLC)?
A: 6.97 µM

Q: What about the GI50 (HS 578T breast) of the same molecule?
A: 6.1 µM

Q: What about the TGI (HS 578T breast) of the same molecule?
A: > 100 µM

Q: What about the GI50 (HT29 colon) of the same molecule?
A: 2950 nM

Q: And the TGI (HT29 colon)?
A: 8.72 µM

Q: And the GI50 (IGROV1 ovarian)?
A: 6.97 µM

Q: What about the TGI (IGROV1 ovarian) of the same molecule?
A: > 100 µM

Q: And the GI50 (K-562 leukemia)?
A: 5.71 µM

Q: What about the TGI (K-562 leukemia) of the same molecule?
A: > 100 µM

Q: And the GI50 (KM12 colon)?
A: 4.47 µM

Q: What about the TGI (KM12 colon) of the same molecule?
A: > 100 µM

Q: What about the GI50 (LOX IMVI melanoma) of the same molecule?
A: 3.19 µM

Q: What about the TGI (LOX IMVI melanoma) of the same molecule?
A: 26.3 µM

Q: And the GI50 (M14 melanoma)?
A: 7.15 µM

Q: What about the TGI (M14 melanoma) of the same molecule?
A: 64.1 µM

Q: And the GI50 (MALME-3M melanoma)?
A: 14.9 µM

Q: And the TGI (MALME-3M melanoma)?
A: > 100 µM

Q: And the GI50 (MCF7 breast)?
A: 2990 nM

Q: What about the TGI (MCF7 breast) of the same molecule?
A: > 100 µM

Q: And the GI50 (MDA-MB-231 breast)?
A: 2180 nM

Q: What about the TGI (MDA-MB-231 breast) of the same molecule?
A: 5.25 µM

Q: And the GI50 (MDA-MB-435)?
A: 5.6 µM

Q: And the TGI (MDA-MB-435)?
A: > 100 µM

Q: And the GI50 (MOLT-4 leukemia)?
A: 4.88 µM

Q: And the TGI (MOLT-4 leukemia)?
A: > 100 µM

Q: What about the GI50 (NCI-H226 lung) of the same molecule?
A: 9.63 µM

Q: What about the TGI (NCI-H226 lung) of the same molecule?
A: > 100 µM

Q: And the GI50 (NCI-H23 lung)?
A: 7.22 µM

Q: And the TGI (NCI-H23 lung)?
A: > 100 µM

Q: What about the GI50 (NCI-H460 lung) of the same molecule?
A: 3.46 µM

Q: And the TGI (NCI-H460 lung)?
A: > 100 µM

Q: And the GI50 (NCI-H522 lung)?
A: 4.49 µM

Q: What about the TGI (NCI-H522 lung) of the same molecule?
A: 77.2 µM

Q: And the GI50 (NCI/ADR-RES ovarian)?
A: > 100 µM

Q: And the TGI (NCI/ADR-RES ovarian)?
A: > 100 µM

Q: What about the GI50 (OVCAR-3 ovarian) of the same molecule?
A: 8.43 µM

Q: What about the TGI (OVCAR-3 ovarian) of the same molecule?
A: > 100 µM

Q: What about the GI50 (OVCAR-4 ovarian) of the same molecule?
A: 6.49 µM

Q: And the TGI (OVCAR-4 ovarian)?
A: > 100 µM

Q: What about the GI50 (OVCAR-5 ovarian) of the same molecule?
A: 2950 nM

Q: And the TGI (OVCAR-5 ovarian)?
A: 26.8 µM

Q: What about the GI50 (OVCAR-8 ovarian) of the same molecule?
A: 7.01 µM

Q: What about the TGI (OVCAR-8 ovarian) of the same molecule?
A: > 100 µM

Q: And the GI50 (PC-3 prostate)?
A: 3.47 µM

Q: What about the TGI (PC-3 prostate) of the same molecule?
A: > 100 µM

Q: What about the GI50 (RPMI-8226 leukemia) of the same molecule?
A: 5.24 µM

Q: What about the TGI (RPMI-8226 leukemia) of the same molecule?
A: > 100 µM

Q: And the GI50 (RXF 393 renal)?
A: 1840 nM

Q: And the TGI (RXF 393 renal)?
A: 4.71 µM

Q: And the GI50 (SF-268 CNS)?
A: 8.2 µM

Q: What about the TGI (SF-268 CNS) of the same molecule?
A: > 100 µM

Q: What about the GI50 (SF-295 CNS) of the same molecule?
A: 2770 nM

Q: What about the TGI (SF-295 CNS) of the same molecule?
A: 12.9 µM

Q: And the GI50 (SF-539 CNS)?
A: 3.93 µM

Q: What about the TGI (SF-539 CNS) of the same molecule?
A: 30.4 µM

Q: And the GI50 (SK-MEL-2 melanoma)?
A: 5.34 µM

Q: And the TGI (SK-MEL-2 melanoma)?
A: 27.8 µM

Q: What about the GI50 (SK-MEL-28 melanoma) of the same molecule?
A: 5.83 µM

Q: What about the TGI (SK-MEL-28 melanoma) of the same molecule?
A: > 100 µM

Q: And the GI50 (SK-MEL-5 melanoma)?
A: 5.14 µM

Q: What about the TGI (SK-MEL-5 melanoma) of the same molecule?
A: > 100 µM

Q: What about the GI50 (SK-OV-3 ovarian) of the same molecule?
A: 92.7 µM

Q: And the TGI (SK-OV-3 ovarian)?
A: > 100 µM

Q: What about the GI50 (SN12C renal) of the same molecule?
A: 7.32 µM

Q: And the TGI (SN12C renal)?
A: > 100 µM

Q: And the GI50 (SNB-19 CNS)?
A: 9.49 µM

Q: What about the TGI (SNB-19 CNS) of the same molecule?
A: > 100 µM

Q: And the GI50 (SNB-75 CNS)?
A: 1450 nM

Q: What about the TGI (SNB-75 CNS) of the same molecule?
A: > 100 µM

Q: What about the GI50 (SR leukemia) of the same molecule?
A: 3.67 µM

Q: And the TGI (SR leukemia)?
A: > 100 µM

Q: What about the GI50 (SW-620 colon) of the same molecule?
A: 9.18 µM

Q: And the TGI (SW-620 colon)?
A: > 100 µM

Q: And the GI50 (T-47D breast)?
A: 3.72 µM

Q: And the TGI (T-47D breast)?
A: > 100 µM

Q: What about the GI50 (TK-10 renal) of the same molecule?
A: 12.7 µM

Q: And the TGI (TK-10 renal)?
A: > 100 µM

Q: What about the GI50 (U251 CNS) of the same molecule?
A: 4.21 µM

Q: And the TGI (U251 CNS)?
A: 61.9 µM

Q: And the GI50 (UACC-257 melanoma)?
A: 5.87 µM

Q: What about the TGI (UACC-257 melanoma) of the same molecule?
A: > 100 µM

Q: And the GI50 (UACC-62 melanoma)?
A: 6.14 µM

Q: And the TGI (UACC-62 melanoma)?
A: > 100 µM

Q: And the GI50 (UO-31 renal)?
A: 18.5 µM

Q: And the TGI (UO-31 renal)?
A: > 100 µM

— PubChem BioAssay (NCI)
